Source: PMC3948622, “Docking, Synthesis and Antiproliferative Activity of N-Acylhydrazone Derivatives Designed as Combretastatin A4 Analogues” (PLoS ONE, 2014)
Like-named read-outs stand apart in the source and are kept apart here.

Assays:
[1] = test system: HCT-8 (adenocarcinoma ileocecal); assay: In vitro antiproliferative MTT assay, HCT-8; format: cell-based
Method: (§1) The antiproliferative activity of compounds 5a–r was determined based on an MTT assay and using CA-4 as standard against the tumor cell lines: HL-60 (human leukemia), SF-295 (human glioblastoma), MDA-MB435 (melanoma), PC3M (prostate cancer), OVCAR-8 (ovaries adenocarcinoma), NCI-H258M (pulmonary bronchio-alveolar carcinoma) and HCT-8 (adenocarcinoma ileocecal) (Table 2). To determine the selectivity index of compounds 5a–r, their antiproliferative profile was also evaluated toward human lymphocytes (Table 2).
(§2) Compounds (0.009–5 µg/mL) were tested for cytotoxic activity against selected cancer cell lines: SF-295 (glioblastoma), HCT-8 (colon), MDAMB-435 (melanoma), HL60 (leukemia), PC3M (prostate cancer), OVCAR-8 (ovaries adenocarcinoma) and NCI-H258M (pulmonary bronchio-alveolar carcinoma). All cell lines were kindly obtained from the National Cancer Institute (Bethesda, MD, USA).Tumor cell proliferation was quantified through the ability of living cells to reduce the yellow dye 3-(4,5-dimethyl-2-thiazolyl)-2,5-diphenyl-2H-tetrazolium bromide (MTT, Sigma Aldrich)) to a purple formazan product and absorbance was measured at 595 nm (DTX-880, Beckman Coulter).

MDA-MB435 (melanoma) = assay: In vitro antiproliferative MTT assay, MDA-MB435; format: cell-based
Method: as §1, §2

SF-295 (glioblastoma) = assay: Hollow Fiber Assay (HFA), SF-295 fibers s.c. in mice; format: in vivo, BALB/c nude mice; conditions: 4 days; for Proliferation (OD595 nm) SF-295: mean ± S.E.M.
Method: Cell culture of SF-295 (glioblastoma) and HCT-116 (colon carcinoma) was performed in RPMI 1640 medium supplemented with 10% fetal bovine serum, 2 mM glutamine, at 37°C with 5% CO2.
Polyvinylidene fluoride (PVDF) HFs with a 1-mm internal diameter and a molecular weight cutoff point of 500 kDa were used (Spectrum Laboratories, Houston, TX). The fibers were cut into pieces 12–15 cm long, washed 2× with sterile distilled water and kept in sterile conditions.
Before use, under sterile conditions, the fibers were incubated in complete RPMI with 20% fetal bovine serum (FBS) overnight (packaging time). Cell viability was assessed by trypan blue exclusion assay. Then, a cell suspension of 7.0×10^6 cell/mL at 4°C was injected into the fiber, with the ends thereof immediately heat-sealed. The fibers were cut into 2 cm each, transferred to petri plates and incubated in complete RPMI medium for 24 h prior to implantation in mice. Each cell was injected into one fiber of a different color (HCT-116, yellow fibers; SF-295, blue fibers).
Each animal received 2 fibers at s.c. site. All incisions were sealed with a surgical stapler.
Tumor cell proliferation was quantified through the ability of living cells to reduce the yellow dye 3-(4,5-dimethyl-2-thiazolyl)-2,5-diphenyl-2H-tetrazolium bromide (MTT, Sigma Aldrich) to a purple formazan product. For this purpose, the fibers removed from animals were incubated with MTT 1 mg/mL in 6-well plates during 4 h at 37°C, 5% CO2 and 95% humidity. The MTT solution was aspirated; fibers were washed with saline solution containing protamine sulphate 2.5% and incubated in protamine solution overnight at 4°C. Fibers were transferred to 24 well plates, cut into 2 or 3 pieces and put to dry. The formazan was dissolved in […] of DMSO, aliquots (150 uL) were transferred to 96 well plates and absorbance was measured at 595 nm (DTX-880, Beckman Coulter).

BALB/c nude mice = conditions: for Survival: 4 days
Method: During the HFA, tumor cells (i.e., SF-295 and HCT-116) were cultivated within biocompatible, semipermeable polyvinylidene fluoride hollow fibers (HFs) and subcutaneously (s.c.) implanted within the dorsal portion of BALB/c nude mice. LASSBio-1586 (5b) and 5-Fluorouracil (5-FU), which was the positive control, were administered intraperitoneally for 4 consecutive days. On day 5, the fibers were removed to quantify the antiproliferative activity of 5b and 5-FU.
A total of 26 female BALB/c nude (nu/nu) mice aging 6–8 weeks were obtained from the animal facilities of State University of São Paulo (USP), Faculty of Medicine, São Paulo (SP), Brazil. They were kept in well-ventilated and sterile cages (Alesco, São Paulo) under standard conditions of light (12 h with alternative day and night cycles) and temperature (22±1°C) and were housed with access to commercial sterile rodent stock diet (Nutrilabor, São Paulo, Brazil) and water ad libitum. As previously mentioned procedures are in accordance with guidelines for the welfare of animals in experimental neoplasia and with national and international standard on the care and use of experimental laboratory animals and were approved by the local Ethical Committee on Animal Research (Process No. 102/2007).
Mice were anaesthetized with ketamine (90 mg/kg) - xylazine (4.5 mg/kg) (Sigma Aldrich). Groups were divided into: a) Negative control (DMSO 5%, n = 6); b) Positive control (5-Flouoruracil, 5-FU, 25 mg/kg/day, n = 7) (Sigma Aldrich); c) LASSBio-1586 (5b; 25 mg/kg/day, n = 7); d) LASSBio-1586 (5b; 50 mg/kg/day, n = 6). A small incision in the neck was incised to permit subcutaneous (s.c.) implantation of the fibers in the dorsal part of the animal. Each animal received 2 fibers at s.c. site. All incisions were sealed with a surgical stapler. The test compounds were administered intraperitoneally during 4 consecutive days. On day 5, fibers were removed to quantify the antiproliferative capacity as described above.

tumor cell lines = assay: In vitro antiproliferative MTT assay, tumor cell lines (summary over the panel); format: cell-based; conditions: summary in text over the cell lines of Table 2; read-out: IC50 (antiproliferative potency over the tumor cell lines)
Method: as §1, §2

[2] = IC50 for human lymphocytes/IC50 for cancer cell line

COc1cc(C(=O)N/N=C/c2ccccc2)cc(OC)c1OC [Compound 5b, (E)-N′benzylidene-3,4,5-trimetoxybenzohydrazide]
IC50 ([1]; Homo sapiens, HCT-8, Table 2, MTT): 450 nM | SI Lymphocyte/ HCT-8 [1, 2]: 2.86±0.13 | SI Lymphocyte/ MDA-MB345 (MDA-MB435 (melanoma); [2]): 20.07±0.93 | comparative selectivity index (CA-4 vs 5b) MDA-MB435 (MDA-MB435 (melanoma); SI of 5b relative to SI of CA-4): 42 | Inhibition (%) SF-295 (SF-295 (glioblastoma); 25 mg/kg/day intraperitoneally): 61.89% | Proliferation (OD595 nm) SF-295 (SF-295 (glioblastoma); 25 mg/kg/day intraperitoneally): 0.57±0.05 OD595 nm | Inhibition (%) SF-295 (SF-295 (glioblastoma); 50 mg/kg/day intraperitoneally): 72.68% | Proliferation (OD595 nm) SF-295 (SF-295 (glioblastoma); 50 mg/kg/day intraperitoneally): 0.41±0.06 OD595 nm | Survival (BALB/c nude mice; 25 mg/kg/day intraperitoneally): 7/7 | Survival (BALB/c nude mice; 50 mg/kg/day intraperitoneally): 6/6 | deaths of mice during treatment (BALB/c nude mice; intraperitoneally for 4 consecutive days, HFA): no deaths occurred | IC50 (tumor cell lines): 64 to 800 nM
